Data from the NIST ThermoML archive (doi:10.1016/j.fluid.2014.10.037).
Values joined by “and” are separate entries in the source; they are usually repeats but may differ in a detail not shown here. Equal values may be shown once. Numbers after ± are expanded uncertainties.

Conditions: Liquid, Closed cell (Static) method

O=Cc1ccco1 [2-furaldehyde]
Conditions | vapor or sublimation pressure [kPa]
353.2 K | 5.9 ± 0.1
373.4 K | 13.6 ± 0.2
408 K | 46.3 ± 0.2

OCc1ccco1 [2-hydroxymethylfuran]
Conditions | vapor or sublimation pressure [kPa]
353.3 K | 2.6 ± 0.1
373 K | 7 ± 0.1
407.9 K | 30.1 ± 0.2

Cc1ccco1 [2-methylfuran]
Conditions | vapor or sublimation pressure
353.8 K | 161.8 ± 1.2 kPa and 162.6 ± 1.1 kPa
357.5 K | 181.5 ± 1.3 kPa and 181.7 ± 1.3 kPa
358.3 K | 186.5 ± 1.3 kPa
362.4 K | 210.5 ± 1.4 kPa
362.5 K | 211.1 ± 1.4 kPa
363.1 K | 214.9 ± 1.4 kPa
367.2 K | 242.1 ± 1.3 kPa
367.4 K | 242.7 ± 1.5 kPa
367.9 K | 246 ± 1.5 kPa
373.4 K | 285.3 ± 1.5 kPa
373.6 K | 286.4 ± 1.5 kPa
373.9 K | 288.4 ± 1.5 kPa
398.2 K | 527.6 ± 2.5 kPa
398.4 K | 530.3 ± 2.2 kPa
398.8 K | 533.8 ± 2.3 kPa
403 K | 587.6 ± 3.5 kPa
403.2 K | 591.7 ± 3.2 kPa
403.3 K | 592.3 ± 3.5 kPa
408.4 K | 667.2 ± 3.6 kPa
408.6 K | 670.2 ± 3.7 kPa
409 K | 676.7 ± 3.7 kPa

c1ccoc1 [furan]
Conditions | vapor or sublimation pressure [kPa]
353.4 K | 455.1 ± 3.1
373.1 K | 735.6 ± 4.4
407.9 K | 1513.3 ± 6

CC(C)O [propan-2-ol]
Conditions | vapor or sublimation pressure [kPa]
353.3 K | 93.8 ± 1.1
373.5 K | 200.1 ± 1.9
408.3 K | 593.8 ± 2.7
